Data from US6566140B2, “Inhibition of coagulation in blood and blood products” (University of Vermont and State Agriculture College, priority 1998, dated 2003).
Several values for one entry are separate records, joined by “and”; a condition that tells them apart may be missing. Equal values may be shown once. Entries after “also recorded” stand apart in the source; their conditions may differ.

Assays:
[1] = tested on: tissue factor initiated clotting in whole blood; assay: tissue factor dependent clotting assay in minimally altered whole blood, contact pathway suppressed with CTI, Hemochron ACT instrument; assay type: cell-based, human
Excerpt: This assay uses an anti-coagulation sufficient amount of CTI to inhibit clotting in minimally altered whole blood. The assay is more particularly referred to herein as “tissue factor dependent clotting assay” or similar phrase. The assay is particularly useful for monitoring coagulation in whole or minimally altered whole blood. As an example, the assay is especially useful as a novel bedside tool that permits improved therapuetic assessment including standard antithrombotic and antiplatelet therapies. The assay should also facilitate improved dose selection, titration and monitoring of multicomponent antithrombotic, antiplatelet, and fibrinolytic treatment.
Blood samples were obtained from healthy individuals and the contact pathway of coagulation was inhibited with corn trypsin inhibitor(a specific factor XIIa inhibitor without effect on other coagulation factors.). Clotting was initiated with relipidated tissue factor and detected with a Hemochron ACT instrument. Results were reproducible with samples from 20 healthy volunteers (mean time to clot=118±9 seconds). In other studies, blood was exposed to pharmacologic concentrations of antithrombotic and antiplatelet agents in vitro. […] Additive effects of antiplatelet agents were readily detectable in contrast to the case with aPTT assays. Thus, addition of 3 μg/ml abciximab to 0.1 anti-IIa/Xa U/ml of heparin and to 0.4 anti-Xa U/ml of enoxaparin prolonged the times to clot by 62 and 52 seconds, respectively (p<0.05 for each).
Blood was harvested between 0900 and 1200 hours. Phlebotomies were performed with 19 gauge butterfly needles and a two syringe technique with which the first three ml of blood were discarded. Blood samples were drawn into syringes containing corn trypsin inhibitor (CTI, Enzyme Research Laboratories, South Bend, Ind.) alone in concentrations ranging from 32 to 300 μg/ml or in combination with selected pharmacologic concentrations of heparin (0.1, 0.25 and 0.4 anti-IIa/Xa U/ml), enoxaparin (0.4 and 0.8 anti-Xa U/ml, Rhone-Poulenc Rorer), hirudin ([…], Sigma), recombinant tick anticoagulant peptide (rTAP, 0.4 anti-Xa U/ml, kindly provided by Corvass International), or abciximab (3 μg/ml, Eli Lilly). The concentrations of heparin, enoxaparin and abciximab were chosen to simulate those attained in clinical practice and equivalent anti-IIa and anti-Xa concentrations of hirudin and rTAP -were chosen. Final volumes were 1 part anticoagulant to 9 parts blood.
A 400 μl aliguot of blood was added to a K-resin ACT tube kindly provided by International Technidyne without the glass beads traditionally used to activate the contact pathway. Lipidated tissue factor (1-60 pM, American Diagnostica, Greenwich, Conn.) was added to K-resin tubes before addition of blood.
The K-resin tubes containing tissue factor and blood were placed promptly in a Hemochron ACT instrument. The time to clot was detected by the displacement of a dependent magnet within the rotating tube when fibrin strands formed. The blood was maintained at 37° C. throughout the assay procedure.

aPTT = aPTT of blood exposed to antithrombotic and antiplatelet agents; assay type: biochemical, human
Experimental: Blood was harvested between 0900 and 1200 hours. Phlebotomies were performed with 19 gauge butterfly needles and a two syringe technique with which the first three ml of blood were discarded. […] The concentrations of heparin, enoxaparin and abciximab were chosen to simulate those attained in clinical practice and equivalent anti-IIa and anti-Xa concentrations of hirudin and rTAP -were chosen. Final volumes were 1 part anticoagulant to 9 parts blood.

[2] = abciximab 3 μg/ml added to 0.1 anti-IIa/Xa U/ml heparin
[3] = abciximab 3 μg/ml added to 0.4 anti-Xa U/ml enoxaparin

enoxaparin
effect on the time to clot ([1]; enoxaparin 0.4 and 0.8 anti-Xa U/ml, 200 μg/ml CTI, 20 pM tissue factor): increased with increasing concentrations
effect on the time to clot ([1]; enoxaparin 0.4 and 0.8 anti-Xa U/ml, 200 μg/ml CTI, 20 pM tissue factor, listed as Enoxaparin): prolonged
increase of the time to clot ([1]; enoxaparin 0.4 anti-Xa U/ml): 46 s
effect on the aPTT (aPTT; enoxaparin 0.4 and 0.8 anti-Xa U/ml): increased with increasing concentrations
effect on the aPTT (aPTT; enoxaparin 0.4 and 0.8 anti-Xa U/ml, listed as Enoxaparin): prolonged
increase of the aPTT (aPTT; enoxaparin 0.4 anti-Xa U/ml): 15 s

heparin
increase of the time to clot ([1]; heparin 0.1 anti-IIa/Xa U/ml): 41 s
effect on the time to clot ([1]; heparin 0.25 and 0.4 anti-IIa/Xa U/ml, 200 μg/ml CTI, 20 pM tissue factor): prolonged with increasing concentrations
effect on the time to clot ([1]; heparin 0.25 and 0.4 anti-IIa/Xa U/ml, 200 μg/ml CTI, 20 pM tissue factor, listed as Heparin): prolonged
increase of the aPTT (aPTT; heparin 0.1 anti-IIa/Xa U/ml): 34 s
effect on the aPTT (aPTT; heparin 0.25 and 0.4 anti-IIa/Xa U/ml): prolonged with increasing concentrations
effect on the aPTT (aPTT; heparin 0.25 and 0.4 anti-IIa/Xa U/ml, listed as Heparin): prolonged

hirudin
effect on the time to clot ([1]; hirudin 0.4 and 0.8 anti-IIa U/ml, 200 μg/ml CTI, 20 pM tissue factor): prolonged the time to clot at each concentration tested
prolongation of the time to clot ([1]; hirudin 0.4 anti-IIa U/ml, 200 μg/ml CTI, tissue factor initiated): 21 s
prolongation of the time to clot ([1]; hirudin 0.8 U/ml, 200 μg/ml CTI, 20 pM tissue factor): 37 s
prolongation of the aPTT (aPTT; hirudin 0.4 anti-IIa U/ml): 3 s
effect on the aPTT (aPTT; hirudin 0.4 anti-IIa U/ml (versus 0.8 U/ml)): significantly prolonged only with the higher concentration; also recorded: detected only with 0.8 U/ml; also recorded: not affected
effect on the aPTT (aPTT; hirudin 0.4 anti-IIa U/ml (versus 0.8 U/ml), listed as Hirudin): without prolonging the aPTT
prolongation of the aPTT (aPTT; hirudin 0.8 U/ml): 16 s

rTAP: recombinant tick anticoagulant peptide, a specific inhibitor of factor Xa (YNRLCIKPRDWIDECDSNEGGERAYFRNGKGGCDSFWICPEDHTGADYYSSYRDCFNACI; UniProt P17726 1-60, looked up)
effect on the time to clot ([1]; rTAP 0.4 anti-Xa U/ml, 200 μg/ml CTI, 20 pM tissue factor): prolonged the time to clot
prolongation of the time to clot ([1]; rTAP 0.4 anti-Xa U/ml, 200 μg/ml CTI, tissue factor initiated): 229 s
effect on the aPTT (aPTT; rTAP 0.4 anti-Xa U/ml): no effect; also recorded: not affected
effect on the aPTT (aPTT; rTAP 0.4 anti-Xa U/ml, listed as tick anticoagulant peptide): without prolonging the aPTT
prolongation of the aPTT (aPTT; tick anticoagulant peptide 0.4 anti-Xa U/ml): 3 s

B1: lipidated tissue factor: lipidated tissue factor (American Diagnostica), initiator of clotting (protein, UniProt P13726 33-295, looked up)
Tissue factor: SGTTNTVAAYNLTWKSTNFKTILEWEPKPVNQVYTVQISTKSGDWKSKCFYTTDTECDLTDEIVKDVKQTYLARVFSYPAGNVESTGSAGEPLYENSPEFTPYLETNLGQPTIQSFEQVGTKVNVTVEDERTLVRRNNTFLSLRDVFGKDLIYTLYYWKSSSSGKKTAKTNTNEFLIDVDKGENYCFSVQAVIPSRTVNRKSTDSPVECMGQEKGEFREIFYIIGAVVFVVIILVIILAISLHKCRKAGVGQSWKENSPLNVS
modifications: lipidated
notes: lipidated tissue factor (American Diagnostica), initiator of clotting
effect on the time to clot ([1]; lipidated tissue factor 1.0 to 60 pM, 12 subjects): concentration dependent decrease in the time to clot

B2: abciximab (antibody, chains of the INN, looked up, V domains shown)
VH: EVQLQQSGTVLARPGASVKMSCEASGYTFTNYWMHWVKQRPGQGLEWIGAIYPGNSDTSYIQKFKGKAKLTAVTSTTSVYMELSSLTNEDSAVYYCTLYDGYYVFAYWGQGTLVTVSA
VL: EIVLTQSPVTLSVTPGDSVSLSCRASRDISNNLHWFQQTSHESPRLLIKYASQSMSGIPSRFSGSGSGTDFTLSINSVETEDFGMYFCQQTNSWPYTFGGGTKLEIK
modifications: Fab
notes: commercially available monoclonal antibody against platelet glycoprotein gpIIb-IIIa
effect of the combination on the time to clot ([1]; 0.1 anti-IIa U/ml heparin with 3 μg/ml abciximab, 200 μg/ml CTI, 20 pM tissue factor): prolonged the time to clot compared with heparin alone
effect of the combination on the time to clot ([1]; 0.4 anti-Xa U/ml enoxaparin with 3 μg/ml abciximab, 200 μg/ml CTI, 20 pM tissue factor): prolonged the time to clot compared with enoxaparin alone
further prolongation of the time to clot compared with heparin alone [1, 2]: 62 s and 61 s
further prolongation of the time to clot compared with enoxaparin alone [1, 3]: 52 s
prolongation of the time to clot by the combination ([1]; abciximab 3 μg/ml and heparin in combination): 102 s
effect on the aPTT of adding abciximab to heparin (aPTT; [2]): not affected; also recorded: did not prolong further the aPTT; also recorded: did not affect the aPTT
effect on the aPTT of adding abciximab to enoxaparin (aPTT; [3]): not affected; also recorded: did not prolong further the aPTT
